{
  "source": "patent EP0105732A2",
  "about": "“Histamine H2 receptor antagonists of the benzisothiazole amino and benzthiadiazine amino series” (BEECHAM GROUP PLC, priority 1982, dated 1984)",
  "key": {"gastric acid secretion": {"test_system": "gastric acid secretion", "assay": "perfused rat stomach preparation (histamine-stimulated acid secretion, anaesthetised rat)", "assay_type": "in vivo", "conditions": "bolus intravenous, maximal reduction in hydrogen-ion concentration as percentage of control, histamine infusion; for inhibition in vivo at 0.2 µmol/kg: dose 0.2 µmole/kg; for inhibition in vivo at 1 µmol/kg: dose 1 µmole/kg; for inhibition in vivo at 0.5 µmol/kg: dose 0.5 µmole/kg; for inhibition in vivo at 0.1 µmol/kg: dose 0.1 µmole/kg", "experimental": "The ability of the compounds of the invention to modify the pH of gastric acid secretion was investigated as follows:\nThe modified (1) perfused stomach preparation (2) of the urethane (25% solution) anaesthetised rat, maintained at 37°C, allows the continuous measurement of pH during basal and stimulated acid secretion.\nThe lumen of the stomach of male Wistar rats (approximately 200 g bodyweight) was perfused, via a cannula designed to reduce the dead space of the stomach, with 5% glucose solution (37°C) at the rate of 3 ml/min. The perfusate was forced over the surface of the secretory mucosa only, the antrum being excluded. The effluent then passed over a microflow-type glass pH eletrode via a collecting funnel situated in the non- glandular forestomach.\nThe secretagogue histamine was administered as a constant intravenous infusion to produce a steady rate of acid secretion. Test compounds were administered in solution as bolus intravenous injections and any effect on the pH of the perfusate noted. The perfusate pH was recorded on a potentiometric recorder and anti-secretory responses were measured in terms of the maximal reduction in hydrogen-ion concentration expressed as a percentage of the control concentration."}, "histamine H2-receptor": {"biological_target": "T1, histamine H2-receptor (Cavia porcellus, UniProt P47747)", "T1 construct": "The atria were dissected free and mounted in a jacketed 5 ml capacity tissue bath; from tissue; host or cells: guinea-pig isolated atria", "T1 sequence (P47747 whole entry)": "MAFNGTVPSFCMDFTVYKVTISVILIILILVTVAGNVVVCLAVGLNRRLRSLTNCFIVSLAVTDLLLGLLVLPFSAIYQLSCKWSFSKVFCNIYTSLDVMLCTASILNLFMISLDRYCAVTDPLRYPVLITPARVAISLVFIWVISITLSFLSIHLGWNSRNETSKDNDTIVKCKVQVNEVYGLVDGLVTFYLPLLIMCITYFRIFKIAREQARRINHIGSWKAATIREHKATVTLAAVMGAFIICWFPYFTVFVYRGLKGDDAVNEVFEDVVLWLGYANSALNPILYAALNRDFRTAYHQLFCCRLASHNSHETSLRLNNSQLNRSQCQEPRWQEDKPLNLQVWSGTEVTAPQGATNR", "assay": "Guinea-pig isolated atria (antagonism of histamine positive chronotropic response)", "assay_type": "cell-based", "experimental": "This test is designed to specifically detect histamine H2-receptor antagonists. Guinea-pigs of either sex, weighing between 250 and 500 g, were killed by cervical dislocation and exsanguination. The heart was removed and placed in cold McEwens solution. The atria were dissected free and mounted in a jacketed 5 ml capacity tissue bath containing McEwens solution maintained at 32 °C and gassed with a 95% oxygen, 5% carbon dioxide gas mixture. Atrial beating was detected by an auxotonic lever and from thence recorded on a Devices MX2 hot wire pen recorder. Atrial rate was derived from the amplified force signal using a Devices Instantaneous Ratemeter and recorded on the MX2 pen recorder. […] To avoid disruption of the tissue by repeated washing, responses to cumulative concentrations of histamine were obtained in the absence (control) and then presence of various concentrations of test compounds. The ability to antagonise histamine mediated positive chronotropic responses of this tissue is believed to be specific for H2-receptor antagonists. Such activity was assessed by examining the ability of test compounds to shift to the right the plotted concentration/response curves to histamine."}, "[1]": {"conditions": "Concentration 7.5 x 10^-8 Molar, 0.075 µM"}, "[2]": {"conditions": "Concentration 5 x 10^-7 Molar, 0.5 µM"}, "[3]": {"conditions": "Concentration 2.5 x 10^-7 Molar, 0.25 µM"}},
  "data": [
    {"smiles": "CN(C)Cc1ccc(CSCCNC2=NS(=O)(=O)c3cccc([N+](=O)[O-])c32)o1", "note": "[Example 1, N-[2-(5-dimethylaminomethylfuran-2-ylmethylthio)ethyl]4-nitro-1,2-benzoisothiazole-3-amine-1,1-dioxide]", "values": [
      {"measurement": "inhibition in vivo at 0.2 µmol/kg", "setting": "gastric acid secretion", "value": 87, "unit": "%"},
      {"measurement": "Activity (Decrease in Histamine Potency)", "setting": "histamine H2-receptor; Concentration 7.5 x 10^-7 Molar, 0.75 µM", "value": "Active"}
    ]},
    {"smiles": "CN(C)Cc1ccc(CSCCNC2=NS(=O)(=O)c3cccc(N)c32)o1", "note": "[Example 2, N^3-[2-(5-dimethylaminomethylfuran-2-ylmethylthio)ethyl]1,2-benzoisothiazole-3,4-diamine-1,1-dioxide]", "values": [
      {"measurement": "inhibition in vivo at 0.2 µmol/kg", "setting": "gastric acid secretion", "value": 100, "unit": "%"},
      {"measurement": "Activity (Decrease in Histamine Potency)", "setting": "histamine H2-receptor; [1]", "value": "Active"}
    ]},
    {"smiles": "CN(C)Cc1ccc(CSCCNC2=NS(=O)(=O)c3ccccc32)o1", "note": "[Example 3, N-[2-(5-dimethylaminomethylfuran-2-ylmethylthio)ethyl]-1,2-benzoisothiazole-3-amine-l,1-dioxide]", "values": [
      {"measurement": "inhibition in vivo at 1 µmol/kg", "setting": "gastric acid secretion", "value": 100, "unit": "%"},
      {"measurement": "Activity (Decrease in Histamine Potency)", "setting": "histamine H2-receptor; [2]", "value": "Active"}
    ]},
    {"smiles": "CN(C)Cc1ccc(CSCCNC2=NS(=O)(=O)c3ccc([N+](=O)[O-])cc32)o1", "note": "[Example 5, N-[2-(5-dimethylaminomethylfuran-2-ylmethylthio)ethyl] 5-nitro-1,2-benzoisothizaole-3-amine-1,1-dioxide]", "values": [
      {"measurement": "inhibition in vivo at 2 µmol/kg", "setting": "gastric acid secretion; dose 2 µmole/kg", "value": 80, "unit": "%"}
    ]},
    {"smiles": "CN(C)Cc1ccc(CSCCNC2=NS(=O)(=O)c3cc([N+](=O)[O-])ccc32)o1", "note": "[Example 6]", "values": [
      {"measurement": "inhibition in vivo at 1 µmol/kg", "setting": "gastric acid secretion", "value": 75, "unit": "%"},
      {"measurement": "Activity (Decrease in Histamine Potency)", "setting": "histamine H2-receptor; [2]", "value": "Active"}
    ]},
    {"smiles": "CN(C)Cc1ccc(CSCCNC2=NS(=O)(=O)c3c2cccc3[N+](=O)[O-])o1", "note": "[Example 7, N-2-(5-dimethylamihomethylfuran-2-ylmethylthioethyl] -7-nitro-1,2-benzoisothizaole-3-amine-1,1-dioxide]", "values": [
      {"measurement": "inhibition in vivo at 0.5 µmol/kg", "setting": "gastric acid secretion", "value": 68, "unit": "%"}
    ]},
    {"smiles": "CN(C)Cc1ccc(CSCCNC2=NS(=O)(=O)c3cc(Cl)ccc32)o1", "note": "[Example 8, N-[2-(5-dimethylaminomethylfuran-2-ylmethylthio)ethyl]-6-chloro-1,2benzoisothiazole-3-amine-1,1-dioxide]", "values": [
      {"measurement": "inhibition in vivo at 5 µmol/kg", "setting": "gastric acid secretion; dose 5 µmole/kg", "value": 75, "unit": "%"},
      {"measurement": "Activity (Decrease in Histamine Potency)", "setting": "histamine H2-receptor; Concentration 1 x 10^-5 Molar, 10 µM", "value": "Active"}
    ]},
    {"smiles": "CN(C)Cc1ccc(CSCCNC2=NS(=O)(=O)c3cc(S(=O)(=O)N(C)C)ccc32)o1", "note": "[Example 9, N-[2-(5-Dimethylaminomethylfuran-2-ylmethylthio)ethyl] -6-dimethylsulphamoyl-1,2-benzoisothizaole-3-amine-1,1-dioxide]", "values": [
      {"measurement": "inhibition in vivo at 0.1 µmol/kg", "setting": "gastric acid secretion", "value": 89, "unit": "%"}
    ]},
    {"smiles": "O=S1(=O)N=C(NCCCOc2cccc(CN3CCCCC3)c2)c2ccccc21", "note": "[Example 10, N-[3-(3-piperid-1-ylmethylphenoxy)propyl]-1,2-henzoiso-thiazole-3-amine-1,1-dioxide]", "values": [
      {"measurement": "inhibition in vivo at 0.5 µmol/kg", "setting": "gastric acid secretion", "value": 100, "unit": "%"},
      {"measurement": "Activity (Decrease in Histamine Potency)", "setting": "histamine H2-receptor; [3]", "value": "Active"}
    ]},
    {"smiles": "O=[N+]([O-])c1cccc2c1C(NCCCOc1cccc(CN3CCCCC3)c1)=NS2(=O)=O", "note": "[Example 11, N-[3-(3-piperid-1-ylmethylphenoxy)propyl]-4-nitro-1,2-benzoisothiazole-3-amine-1,1-dioxide]", "values": [
      {"measurement": "inhibition in vivo at 0.5 µmol/kg", "setting": "gastric acid secretion", "value": 100, "unit": "%"},
      {"measurement": "Activity (Decrease in Histamine Potency)", "setting": "histamine H2-receptor; Concentration 1 x 10^-7 Molar, 0.1 µM", "value": "Active"}
    ]},
    {"smiles": "CN(C)Cc1cccc(OCCCNC2=NS(=O)(=O)c3ccccc32)c1", "note": "[Example 12, N-[3-(3-dimethylaminomethylphenoxy)propyl]-1,2-benzoiso-thiazole-3-amine-1,1-dioxide]", "values": [
      {"measurement": "inhibition in vivo at 0.5 µmol/kg", "setting": "gastric acid secretion", "value": 94, "unit": "%"},
      {"measurement": "Activity (Decrease in Histamine Potency)", "setting": "histamine H2-receptor; Concentration 1 x 10^-6 Molar", "value": "Active"}
    ]},
    {"smiles": "N=C(N)Nc1nc(CSCCNC2=NS(=O)(=O)c3cccc([N+](=O)[O-])c32)cs1", "note": "[Example 13, N-[2-(2-guanidinothiazol-4-ylmethylthio)ethyl]-4-nitro-1,2-benzoisothiazole-3-amine-1,1-dioxide]", "values": [
      {"measurement": "Activity (Decrease in Histamine Potency)", "setting": "histamine H2-receptor; Concentration 1 x 10^-6 Molar", "value": "Active"}
    ]},
    {"smiles": "CN(C)Cc1ccc(CSCCNC2=NS(=O)(=O)c3cc(N)ccc32)o1", "note": "[Example 14, N^3-[2-(5-dimethylaminomethylfuran-2-ylmethylthio)ethyl]-1,2-benzoisothiazole-3,6-diamine-1,1-dioxide]", "values": [
      {"measurement": "inhibition in vivo at 0.2 µmol/kg", "setting": "gastric acid secretion", "value": 60, "unit": "%"},
      {"measurement": "Activity (Decrease in Histamine Potency)", "setting": "histamine H2-receptor; [2]", "value": "Active"}
    ]},
    {"smiles": "CN(C)Cc1ccc(CSCCNC2=NS(=O)(=O)c3c(N)cccc32)o1", "note": "[Example 15, N^3-[2-(5-dimethylaminomethylfuran-2-lmethylthio)ethyl]-1,2-benzoisothiazole-3,7-diamine-1,1dioxide]", "values": [
      {"measurement": "inhibition in vivo at 0.4 µmol/kg", "setting": "gastric acid secretion; dose 0.4 µmole/kg", "value": 60, "unit": "%"}
    ]},
    {"smiles": "Nc1cccc2c1C(NCCCOc1cccc(CN3CCCCC3)c1)=NS2(=O)=O", "note": "[Example 16, N^3-[3-(3-piperid-1-ylmethylphenoxy)propyl]-1,2-benzoiso-thiazole-3,4-diamine-1,1-dioxide]", "values": [
      {"measurement": "inhibition in vivo at 0.1 µmol/kg", "setting": "gastric acid secretion", "value": 100, "unit": "%"},
      {"measurement": "Activity (Decrease in Histamine Potency)", "setting": "histamine H2-receptor; [1]", "value": "Active"}
    ]},
    {"smiles": "NC(N)=Nc1nc(CSCCNC2=NS(=O)(=O)c3cccc(N)c32)cs1", "note": "[Example 20, N^3-[2-('2-guanidinothiazole-4-ylmethylthio)ethyl]-1,2-benzoisothiazole-3,4-diamine-1,1-dixide]", "values": [
      {"measurement": "inhibition in vivo at 0.2 µmol/kg", "setting": "gastric acid secretion", "value": 100, "unit": "%"},
      {"measurement": "Activity (Decrease in Histamine Potency)", "setting": "histamine H2-receptor; [3]", "value": "Active"}
    ]},
    {"smiles": "CN(C)Cc1ccc(CSCCNC2=Nc3ccccc3S(=O)(=O)N2)o1", "note": "[Example 39, N-[2-({5-Dimethylaminomethylfuran-2-yl)methylthio)ethyl] 1,2,4-benzothiadiazine-3-amine-1,1-dioxide]", "values": [
      {"measurement": "inhibition in vivo at 0.5 µmol/kg", "setting": "gastric acid secretion", "value": 78, "unit": "%"},
      {"measurement": "Activity (Decrease in Histamine Potency)", "setting": "histamine H2-receptor; Concentration 1 x 10^-6 Molar", "value": "Active"}
    ]},
    {"smiles": "O=S1(=O)NC(NCCCOc2cccc(CN3CCCCC3)c2)=Nc2ccccc21", "note": "[Example 40, N-[3-(3-{1-piperidylmethyl}phenoxy)propyl]-1,2,4-benzothia-diazine-3-amine-1,1-dioxide]", "values": [
      {"measurement": "inhibition in vivo at 0.5 µmol/kg", "setting": "gastric acid secretion", "value": 94, "unit": "%"}
    ]}
  ]
}
